We go through seven compounds from patent US12383624B2, “Cargo delivery system and composition comprising the same” (SEOUL NATIONAL UNIVERSITY R&DB FOUNDATION, priority 2018, dated 2025).

Experiment [1] concerns Cyclin D1. Put plainly: target protein degradation by immunoblotting (Experimental Example 6). The format is cell-based, human. The conditions noted are these: A549 cell line, 24 hours. The method, then:
(§1) In order to evaluate the target proteion degradation efficacy by Examples 14 to 33 according the disclosure, the following experiment was conducted.
(§2) First, as cell lines primarily expressing the target protein, Human kidney-derived cancer cells, HEK293T (ATCC, CRL-3216), human prostate-derived cancer cells, LNcap (Korean Cell Line Bank, Korean Cell Line Research Foundation, KCLB No. 80018), mouse embryonic fibroblast, MEF (ATCC, SCRC-1008), human cervical cancer cells, HeLa (Korean Cell Line Bank, Korean Cell Line Research Foundation, KCLB No. 10002), human blood-derived cells, K562 (Korean Cell Line Bank, Korean Cell Line Research Foundation, KCLB No. 10243), human blood-derived cells, THP-1 (Korean Cell Line Bank, Korean Cell Line Research Foundation, KCLB No. 40202), human lung-derived cancer cells, A549 (Korean Cell Line Bank, Korean Cell Line Research Foundation, KCLB No. 10185), human breast-derived cancer cells, MCF7 (Korean Cell Line Bank, Korean Cell Line Research Foundation, KCLB No. 30022), human neuroblastoma, SH-SY5Y cell lines (Korean Cell Line Bank, Korean Cell Line Research Foundation, KCLB No. 22266), human pancreatic cancer cells, PANC-1 (Korean Cell Line Bank, Korean Cell Line Research Foundation, KCLB No. 21469) were cultured, respectively, in an incubator maintained at 5% carbon dioxide, using DMEM containing 10% FBS and 1% streptomycin/penicillin, RPMI1640, or MEM medium, and then the respective cells were dispensed in 12-well plate. Additional incubation was performed for 24 hours to ensure that each cell completely fixed to the surface of the plate.
(§3) In order to confirm whether Compounds A to W of Examples 14 to 33 degrade the target protein respectively, the cultured cells were treated with the compound of each example for 24 hours and then collected.
(§4) In this case, HEK293T, which is human kidney-derived cancer cells, LNcap, which is human prostate-derived cancer cells, and MEF cell line, which is mouse embryonic fibroblasts, were treated with Example 14 (Compound A). HEK293T, which is human kidney-derived cancer cells, was treated with Example 15 (Compound B). HEK293T cell line, which is human kidney-derived cancer cells, and HeLa cell line, which is cervical-derived cancer cells, were treated with Example 16 (Compound C). HEK293T cell line, which is human kidney-derived cancer cells, was treated with Example 17 (Compound D). K562 cell line, which is human blood-derived cells, was treated with Example 18 (Compound E). HEK293T cell line, which is human kidney-derived cancer cells, was treated with Example 19 (Compound F). THP-1 cell line, which is human blood-derived cells, was treated with Example 20 (Compound G). A549 cell line, which is human lung-derived cancer cells, was treated with Example 21 (Compound H). A549 cell line, which is human lung-derived cancer cells, was treated with Example 22 (Compound I). MCF7 cell line, which is human breast-derived cancer cells, was treated with Example 23 (Compound J). HEK293T cell line, which is […], was treated with Example 24 (Compound L). SH-SY5Y, which is human neuroblastoma, and HeLa cell line, which is cervical-derived cancer cells, were treated with Example 25 (Compound M). THP-1 cell line, which is human blood-derived cells, was treated with Example 26 (Compound P). SH-SY5Y, which is human neuroblastoma, and HeLa cell line, which is cervical-derived cancer cells, were treated with Example 27 (Compound Q). SH-SY5Y, which is human neuroblastoma, and HeLa cell line, which is cervical-derived cancer cells, were treated with Example 28 (Compound R). HeLa cell line, a human cervical-derived cancer cell, was treated with Example 29 (Compound S). SH-SY5Y cell line, which is human neuroblastoma, was treated with Example 30 (Compound T). SH-SY5Y cell line, which is human neuroblastoma, was treated with Example 31 (Compound U). PANC-1 cell line, which is human pancreatic-derived cancer cells, was treated with Example 32 (Compound V). […]
A general note: Immunoblotting shows a protein as a band on a membrane.

Experiment [2] addresses T1, STAT3 (Homo sapiens, UniProt P40763).
T1 construct: as cell lines primarily expressing the target protein; endogenous in cells; host or cells: A549
Described as above. The format is cell-based. The conditions noted are these: A549 cell line, 24 hours. The method, then: as §1, §2, §3, §4

For experiment [3], the target named is T2, p-STAT3 (Homo sapiens, UniProt P40763).
T2 construct: endogenous in cells; host or cells: A549
T2 sequence (P40763 whole entry): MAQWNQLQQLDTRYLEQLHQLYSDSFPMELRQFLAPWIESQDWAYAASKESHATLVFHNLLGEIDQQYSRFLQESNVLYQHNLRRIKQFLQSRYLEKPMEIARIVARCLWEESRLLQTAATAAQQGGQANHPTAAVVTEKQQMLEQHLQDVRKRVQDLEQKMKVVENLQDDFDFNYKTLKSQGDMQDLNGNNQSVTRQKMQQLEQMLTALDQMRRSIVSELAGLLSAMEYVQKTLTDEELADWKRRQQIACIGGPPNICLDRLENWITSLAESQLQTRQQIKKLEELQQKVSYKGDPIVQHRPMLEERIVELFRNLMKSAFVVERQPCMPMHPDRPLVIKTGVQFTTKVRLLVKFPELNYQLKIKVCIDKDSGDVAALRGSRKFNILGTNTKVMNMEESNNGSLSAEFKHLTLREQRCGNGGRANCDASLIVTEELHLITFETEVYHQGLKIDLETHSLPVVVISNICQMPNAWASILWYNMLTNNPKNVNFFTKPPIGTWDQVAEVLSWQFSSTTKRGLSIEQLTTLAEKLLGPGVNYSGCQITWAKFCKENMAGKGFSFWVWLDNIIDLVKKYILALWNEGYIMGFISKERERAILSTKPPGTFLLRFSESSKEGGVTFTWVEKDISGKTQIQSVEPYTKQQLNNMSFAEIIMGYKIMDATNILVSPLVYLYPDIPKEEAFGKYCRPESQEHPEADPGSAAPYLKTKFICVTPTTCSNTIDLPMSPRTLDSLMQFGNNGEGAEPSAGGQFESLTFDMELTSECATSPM
The experiment is described as above. The format is cell-based. The conditions noted are these: A549 cell line, 24 hours. The method, then: as §1, §2, §3, §4

Experiment [4] relates to Tau. The experiment is described as above. The format is cell-based, human. The conditions noted are these: SH-SY5Y and HeLa cell lines treated, 24 hours. The method, then: as §1, §2, §3, §4
The target of experiment [5] is T3, Desmin Mut(L385P) (Homo sapiens, UniProt P17661, L385P).
T3 construct: expressed in transfected cells; host or cells: HeLa (Compound S); SH-SY5Y or HeLa (Compounds M, Q, R)
T3 sequence (P17661 whole entry L385P): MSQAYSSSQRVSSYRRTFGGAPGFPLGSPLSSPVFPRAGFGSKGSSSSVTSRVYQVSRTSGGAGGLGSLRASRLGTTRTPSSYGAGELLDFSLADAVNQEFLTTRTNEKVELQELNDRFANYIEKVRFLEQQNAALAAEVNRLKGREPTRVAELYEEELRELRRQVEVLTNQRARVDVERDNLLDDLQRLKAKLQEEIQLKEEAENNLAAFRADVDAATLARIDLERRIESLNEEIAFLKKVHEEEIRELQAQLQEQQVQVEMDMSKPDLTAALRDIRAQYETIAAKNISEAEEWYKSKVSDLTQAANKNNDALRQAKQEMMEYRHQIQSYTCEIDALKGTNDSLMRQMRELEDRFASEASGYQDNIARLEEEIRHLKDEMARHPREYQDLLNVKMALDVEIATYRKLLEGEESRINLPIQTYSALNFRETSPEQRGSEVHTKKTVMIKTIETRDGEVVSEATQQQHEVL
The experiment is described as above. The format is cell-based. The conditions noted are these: 24 hours. The method, then:
as §1, §2, §3, §4

Experiment [6] deals with T4, RIPK2 (Homo sapiens, UniProt O43353).
T4 construct: as cell lines primarily expressing the target protein; endogenous in cells; host or cells: THP-1
T4 sequence (O43353 whole entry): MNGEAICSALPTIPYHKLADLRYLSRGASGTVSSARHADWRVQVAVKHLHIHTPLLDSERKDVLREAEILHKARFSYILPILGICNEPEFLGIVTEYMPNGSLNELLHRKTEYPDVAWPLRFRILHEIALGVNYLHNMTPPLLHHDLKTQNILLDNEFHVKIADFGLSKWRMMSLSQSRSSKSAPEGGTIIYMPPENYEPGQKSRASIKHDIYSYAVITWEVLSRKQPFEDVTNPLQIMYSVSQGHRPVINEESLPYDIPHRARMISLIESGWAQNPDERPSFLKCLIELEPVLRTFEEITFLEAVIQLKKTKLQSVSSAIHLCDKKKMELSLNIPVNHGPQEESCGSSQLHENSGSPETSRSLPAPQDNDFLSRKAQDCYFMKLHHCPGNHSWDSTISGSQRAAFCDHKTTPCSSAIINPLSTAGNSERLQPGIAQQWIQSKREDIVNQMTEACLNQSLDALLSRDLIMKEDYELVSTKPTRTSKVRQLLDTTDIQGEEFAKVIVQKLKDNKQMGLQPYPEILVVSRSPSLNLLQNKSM
The description is as above. The conditions noted are these: THP-1 cell line, 24 hours. The format is cell-based. The method, then:
as §1, §2, §3, §4

Experiment [7] concerns the target T5, p62 protein (Homo sapiens, UniProt Q13501).
T5 construct: endogenous in cells; host or cells: HEK293
Put plainly: oligomerization activity of p62 protein in cultured cells by immunoblotting. The format is cell-based. Set-up: dose or concentration left out as unconfirmed. The conditions noted are these: HEK293 cell line, 2 hr, unlike DMSO control. The method, then:
In order to evaluate the oligomerization activity efficacy of p62 protein according to examples of the disclosure, HEK293 cell line, which is human embryonic kidney-derived cell, was collected. The cell lines were treated with Example 3 (PBA 1104), Example 4 (PBA 1105), Example 5 (Anle F105), Example 8 (PHTPP 1304), Example 11 (BTA-1 1104), Example 12 (Curcumin 1204), Example 1 (ATC 1105), Example 2 (ATC 1104), Example 10 (Resv 1105), Example 13 (Rilu 204) according to the examples, YTK-1105 compound, which is an autophagy targeting ligand compound as a comparative example, and DMSO as a control […], 2 hr, respectively.
In order to measure intracellular p62 protein activation and oligomerization in cells according to the treatment with these compounds, the respective cells were dispensed into a 100 pi dish. The cells were collected after further culturing for 24 hours so that the cells were completely attached to the surface of the plate. 100 μl of lysis buffer (20 mM Tris (pH 7.4), 150 mM NaCl, 1% Triton X-100, 2 mM NaF, 2 mM EDTA, 2 mM beta-glycerophosphate, 5 mM sodium orthovanadate, 1 mM PMSF, leupeptin, aproteinin) were injected into each sample and the cells were lysed. Based on the measured total protein concentration, each sample was treated with test compounds at room temperature for 2 hours, and then a sample buffer was added and allowed to react at 95° C. for 10 minutes. […]

[8] abbreviates: SH-SY5Y and HeLa cell lines treated.

T5 sequence (Q13501 whole entry): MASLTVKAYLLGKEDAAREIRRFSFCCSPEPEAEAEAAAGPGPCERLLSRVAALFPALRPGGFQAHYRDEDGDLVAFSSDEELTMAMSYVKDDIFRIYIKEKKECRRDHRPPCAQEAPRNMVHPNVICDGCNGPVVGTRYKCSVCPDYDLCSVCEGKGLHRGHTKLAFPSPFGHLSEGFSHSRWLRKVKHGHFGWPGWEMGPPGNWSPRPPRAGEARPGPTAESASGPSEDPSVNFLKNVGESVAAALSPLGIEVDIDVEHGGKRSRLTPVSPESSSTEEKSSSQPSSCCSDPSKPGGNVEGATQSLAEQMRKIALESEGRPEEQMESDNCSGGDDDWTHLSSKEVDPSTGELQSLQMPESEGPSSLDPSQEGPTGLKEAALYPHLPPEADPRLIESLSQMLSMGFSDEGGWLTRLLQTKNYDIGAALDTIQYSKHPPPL
T1 sequence (P40763 whole entry): as the sequence (P40763 whole entry) above

As for `NC(=O)CC[C@H](NC(=O)[C@@H]1CC[C@@H]2CCN(C(=O)CCCOCCOCCOCCOCCNC[C@@H](O)COc3ccc(OCc4ccc(F)cc4)c(OCc4ccc(F)cc4)c3)C[C@H](NC(=O)c3cc4cc(C(F)(F)P(=O)(O)O)ccc4[nH]3)C(=O)N21)C(=O)NC(c1ccccc1)c1ccccc1` [Example 21, ((2-(((5S,8S,10aR)-8-(((S)-5-amino-1-(benzhydrylamino)-1,5-dioxopentan-2-yl)carbamoyl)-3-((R)-1-(3,4-bis((4-fluorobenzyl)oxy)phenoxy)-2-hydroxy-7,10,13,16-tetraoxa-4-azaicosan-20-oyl)-6-oxodecahydropyrrolo[1,2-a][1,5]diazocin-5-yl)carbamoyl)-1H-indol-5-yl)difluoromethyl)phosphonic acid], the “degradation of target protein Cyclin D1 (decrease in level vs Control)” value in experiment [1] is recorded as “can be degraded”. Further, the “degradation of target protein STAT3 (decrease in level vs Control)” value in experiment [2] was “can be degraded”. In experiment [3], the “degradation of target protein p-STAT3 (decrease in level vs Control)” value is on record as “can be degraded”.
On to `O=C(CCCc1ccccc1)NCCOCCOCCOCCOCCOCCNCc1ccc(OCc2ccccc2)c(OCc2ccccc2)c1` [Example 27, N-(1-(3,4-bis(benzyloxy)phenyl)-5,8,11,14,17-pentaoxa-2-azanonadecan-19-yl)-4-phenylbutanamide], for which the “degradation of target protein Tau (decrease in level vs Control)” value in experiment [4] is “can be degraded”. Moreover, the “degradation of target protein Desmin Mut(L385P) (decrease in level vs Control)” value in experiment [5] (setting [8]) is listed as “can be degraded”.
On to `O=C(CCCc1ccccc1)NCCOCCOCCOCCOCCOCCOCCOCCNCc1ccc(OCc2ccccc2)c(OCc2ccccc2)c1` [Example 28, N-(1-(3,4-bis(benzyloxy)phenyl)-5,8,11,14,17,20,23-heptaoxa-2-azapentacosan-25-yl)-4-phenylbutanamide], for which, in experiment [4], the “degradation of target protein Tau (decrease in level vs Control)” value was “can be degraded”. In addition, in experiment [5] (setting [8]), the “degradation of target protein Desmin Mut(L385P) (decrease in level vs Control)” value is “can be degraded”.
For `CC(C)(C)S(=O)(=O)c1cc2c(Nc3ccc4scnc4c3)ncnc2cc1OCCNCCOCCOCCNCc1cccc(OCc2ccccc2)c1` [Example 20, N-(7-((1-(3-(benzyloxy)phenyl)-5,8-dioxa-2,11-diazatridecan-13-yl)oxy)-6-(tert-butylsulfonyl)quinazolin-4-yl)benzo[d]thiazol-5-amine], the “degradation of target protein RIPK2 (decrease in level vs Control)” value in experiment [6] is on record as “can be degraded”.
As for `O=C(CCCc1ccccc1)NCCOCCOCCOCCNC[C@@H](O)COc1ccc(OCc2ccc(F)cc2)c(OCc2ccc(F)cc2)c1` [Example 29, (R)—N-(15-(3,4-bis((4-fluorobenzyl)oxy)phenoxy)-14-hydroxy-3,6,9-trioxa-12-azapentadecyl)-4-phenylbutanamide], the “degradation of target protein Desmin Mut(L385P) (decrease in level vs Control)” value in experiment [5] (HeLa cell line) was “can be degraded”.
For the compound `CC(C)(C)S(=O)(=O)c1cc2c(Nc3ccc4scnc4c3)ncnc2cc1OCCNCCOCCOCCOCCOCCOCCNC[C@@H](O)COc1ccc(OCc2ccc(F)cc2)c(OCc2ccc(F)cc2)c1` [Example 26, (R)-1-((4-(benzo[d]thiazol-5-ylamino)-6-(tert-butylsulfonyl)quinazolin-7-yl)oxy)-24-(3,4-bis((4-fluorobenzyl)oxy)phenoxy)-6,9,12,15,18-pentaoxa-3,21-diazatetracosan-23-ol], the “degradation of target protein RIPK2 (decrease in level vs Control)” value in experiment [6] is given as “can be degraded”.
Turning to `OCCNCc1ccc(OCc2ccccc2)c(OCc2ccccc2)c1` [YTK-1105], in experiment [7], the “monomer of p62 proteins” value was “decrease”; the “p62 oligomers and high-molecular aggregates” value was “increase”.
